For one data set, the system named is MGMT CpG island. As to the kind of experiment: Bisulfite sequencing (BiSEQ) of TA clones. To be noted: for location of methylated CpG sites: LN18 dCas9-DNMT3A-CD/sgRNA clones, Region 1 (sgRNA4) or Region 2 (sgRNA1, 2, 3). It is filed as cell-based, human. The source says:
FIG. 2 Bisulfite sequencing of representative clones with induced methylation patterns of CpG sites at CRISPR-targeted regions within the MGMT CpG island. (a) Map of MGMT CpG island, 762 bp in length, encompassing promoter, exon 1, enhancer, and intron 1 regions. Comprehensive map of the MGMT gene with superimposed locations of Illumina probes (yellow boxes) as well as exon (salmon), intron (purple), and promoter/upstream (gray) regions. Locations of complementary sequences to the four sgRNAs are as shown. Open star, half-closed star and closed star regions indicate locations of differentially methylated Illumina probes. F1/R1 and F2/R2 indicate nested PCR primer pairs for Region 1 and Region 2, respectively. Inset: MGMT CpG island (individual CpG sites in light green) and relative locations of Region 1 and Region 2. CpG sites 22, 57, 72, and 96 indicate the specific sites flanking each region, numbered in order from 5′ to 3′ within the CpG island. Differentially methylated regions are shown (DMR1 and DMR2), located within assayed Region 1 and 2, respectively. MSP region is also shown within DMR2. Genetic regions and positions on Chromosome 10 were determined using the UCSC genome browser (GRCh37/hg19 assembly) and the 850K array probe annotation file provided by Illumina. (b) Lollipop schematic illustrating the distribution of CpG methylation sites in each representative clonal population (red circle=methylated site; gray circle=unmethylated site). Genomic DNA from LN18 cells containing either dCas9-DNMT3A/non-specific sgRNA or dCas9-DNMT3A/sgRNAs underwent sodium bisulfite treatment, followed by nested PCR amplification. Amplicons of Region 1 and Region 2 were obtained separately and used to generate individual clones for each region via TA cloning. Abbreviations for individual clone nomenclature (e.g., “4-NSC1” vs. “13-NSC1”): “4”=Region containing sgRNA4 target sequence; “13”=Region containing sgRNA 1, 2, 3 target sequences. “NSC” vs. “SgR” indicates whether clone source was transfected with non-specific sgRNA or sgRNA1, 2, 3, 4. Numbers following NSC or SgR designation indicate individual clone numbers. Each row of the schematic (per category, NSC or SgR) represents a single clone. Regional CpG sites as per Malley et al (2011): DMR1=CpG 25-50; DMR2=CpG 73-90; MSP=CpG 76-87 (MSP-F=CpG 76-80; MSP-R=CpG 84-87). Core/minimal promoter=CpG 50-62; Enhancer=CpG 82-87. […] Blue arrows indicate CpG sites that are methylated (converted from T-G to C-G). Region 1 includes the sequence targeted by sgRNA4 (s4). Region 2 includes the sequence targeted by sgRNA 1, 2 and 3 (s1, s2, s3).
Bisulfite Sequencing. DNA was isolated using DNEasy Blood & Tissue Kit (Qiagen, Catalog #69506). Bisulfite conversion was accomplished using EZ DNA Methylation-Gold (Zymo Research, Catalog #D5005) per kit protocol. Nested PCR primers were used as follows: […]
Region 1: First PCR primer pair F4/R4; second PCR pair F5/R4.
Region 2: First PCR primer pair F1/R1; second PCR pair F1/SeqR.
Sequencing reactions were performed using BigDye Terminator v3.1 Cycle Sequencing Kit (ThermoFisher, Cat #433750) with sequencing primers (R4 primer=Region 1; SeqR primer=Region 2); samples were purified by PCR Clean-Up Performa Spin Columns (EdgeBio Cat #13266) and submitted for Sanger sequencing analysis (Laragen, Culver City, CA).
TA Cloning. Sodium bisulfite-treated genomic DNA underwent nested PCR as above, for either Region 1 or 2. […]

The subject of data set [1] is LN18 human glioma cells. As to the kind of experiment: Clonogenic assay, TMZ sensitivity. It is filed as cell-based. To be noted: TMZ 12 days total treatment, vs DMSO.
Data set [2] concerns LN18 human glioma cells. As to the kind of experiment: MTT survival assay, TMZ sensitivity. To be noted: TMZ 25 μM or 100 μM, 5 days, vs DMSO. Format: cell-based. As to the method: FIG. 4 Effects of dCas9-DNMT3A-CD/MGMT-specific sgRNA targeted methylation on the sensitivity of glioma cells to temozolomide. […] Negative control: LN18 NSC cells. The “n” indicates the number of separate experiments performed for each cell type. Results were normalized to the average negative control treatment condition (drug vehicle DMSO). TMZ concentrations ranged from 25 µM to 100 µM. Horizontal bars for all figures represent post hoc Tukey's multiple comparisons test results for groups of interest following two-way ANOVA (“ns” indicates “p>0.05”; * indicates p<0.05; ** indicates p<0.01; *** indicates p<0.001; **** indicates p<0.0001). (a) TMZ sensitivity measured via MTT survival assays in LN18 cells co-expressing dCas9-DNMT3A-CD (d3A) and MGMT-targeting sgRNAs (sg1, 2, 3, 4) compared to NSC lines. […] MTT cell survival was calculated by subtracting […] for TMZ-treated cells (25 µM and 100 µM, 5 days) versus DMSO treatment control condition, followed by normalization to the average control condition.
Cell Survival Assays. […] Formazan product was extracted by cell lysis with DMSO (300 μL) and measured (560 nm absorbance with background subtraction of 660 nm). […]

For another data set, the target named is T1, MGMT (Homo sapiens, UniProt P16455).
T1 construct: host or cells: patients (clinical trial)
T1 sequence (P16455 1-207): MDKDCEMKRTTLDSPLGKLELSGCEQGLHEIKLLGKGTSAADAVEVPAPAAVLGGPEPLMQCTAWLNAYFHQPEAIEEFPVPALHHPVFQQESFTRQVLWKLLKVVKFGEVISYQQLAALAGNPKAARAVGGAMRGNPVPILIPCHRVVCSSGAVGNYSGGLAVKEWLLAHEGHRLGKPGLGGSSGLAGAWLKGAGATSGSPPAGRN
To be noted: Phase II clinical trial, cited from earlier work.

“5′-AGGCGCCCTCACTTCGCCGT-3′ (guide (5'-AGGCGCCCTCACTTCGCCGT-3'; as printed in the source, key not given here) [sgRNA2]”: the “location of methylated CpG sites” value with MGMT CpG island is “CpG 77, 81-89”. For “5′-AGGGCATGCGCCGACCCGGT-3′ (guide (5'-AGGGCATGCGCCGACCCGGT-3'; as printed in the source, key not given here) [sgRNA4]”, the “location of methylated CpG sites” value in the data set on MGMT CpG island was “CpG 22-38”. Besides, the “methylation radius upstream from sgRNA” value in the data set on MGMT CpG island (Region 1, to upstream 5′ limit of amplicon (CpG 22)) amounted to 20 bp. As to “5′-CTTTGCGTCCCGACGCCCGC-3′ (guide (5'-CTTTGCGTCCCGACGCCCGC-3'; as printed in the source, key not given here) [sgRNA3]”, in the data set with MGMT CpG island, the “location of methylated CpG sites” value is listed as “CpG 77, 81-89”. The same measure, in the same setting: for “5′-GGTGCGCACCGTTTGCGACT-3′ (guide (5'-GGTGCGCACCGTTTGCGACT-3'; as printed in the source, key not given here) [sgRNA1]” the value was “CpG 77, 81-89”. For the compound “5′-GTATTACTGATATTGGTGGG-3′ (chemistry not given here) [NSC]”, in the data set with LN18 human glioma cells [1], the “TMZ sensitivity (clonogenic survival)” value is recorded as “Essentially no TMZ sensitivity”. In the data set on LN18 human glioma cells [2], the “TMZ sensitivity (MTT survival)” value is reported as “Essentially no TMZ sensitivity”.

With `Nc1nc(OCc2ccccc2)c2nc[nH]c2n1` [O-6-benzylguanine], the clinical benefit result on MGMT is “limited benefits”. Also, at MGMT (including off-target bone marrow suppression), the toxicity result was “severe dose-limiting toxicities”.

(Values after patent US20260176628A1, “TARGETED EPIGENETIC EDITING AS NOVEL THERAPY FOR MALIGNANT GLIOMA” (The Regents of the University of California, priority 2022, published 2026).)
